Test results: ChEMBL document CHEMBL3244274, “Antiallergic 9-oxo-11-hydroxy-5H,9H-[2]benzopyrano[4,3-g][1]benzopyrans” (J Med Chem, 1978)
Values after ≈ are worked out from the molar mass of the structure shown.

Experiments:
[1] = tested on: Stomach; test: Antiallergic activity in rat stomach strips assessed as inhibition of PGE2-induced anaphylaxis; type: functional, tissue-based
[2] = tested on: Ileum; test: Antiallergic activity in guinea pig ileum strips assessed as inhibition of bradykinin-induced anaphylaxis; type: functional, tissue-based; settings: Cavia porcellus
[3] = Antiallergic activity in guinea pig lung tissue assessed as inhibition of SRS-A production; type: functional, tissue-based, Cavia porcellus
[4] = tested on: Rattus norvegicus; test: Antiallergic activity in iv dosed adrenalectomized Sprague-Dawley rat assessed as inhibition of egg albumin-induced passive cutaneous anaphylaxis reaction after 30 mins by Evans blue staining; type: functional; settings: 0.5 h
[5] = tested on: Stomach; test: Antiallergic activity in rat stomach strips assessed as inhibition of […]-induced anaphylaxis; type: functional, tissue-based
[6] = tested on: Ileum; test: Antiallergic activity in guinea pig ileum strips assessed as inhibition of histamine-induced anaphylaxis; type: functional, tissue-based; settings: Cavia porcellus
[7] = tested on: Rattus norvegicus; test: Antiallergic activity in adrenalectomized Sprague-Dawley rat assessed as inhibition of egg albumin-induced passive cutaneous anaphylaxis reaction at 10 mg/kg, iv after 30 mins by Evans blue staining; type: functional; settings: 0.5 h
[8] = tested on: Ileum; test: Antiallergic activity in guinea pig ileum strips assessed as inhibition of serotonin-induced anaphylaxis; type: functional, tissue-based; settings: Cavia porcellus
[9] = tested on: Stomach; test: Antiallergic activity in rat stomach strips assessed as inhibition of […]-induced anaphylaxis at 100 ug/ml; type: functional
[10] = tested on: Rattus norvegicus; test: Antiallergic activity in adrenalectomized Sprague-Dawley rat assessed as inhibition of egg albumin-induced passive cutaneous anaphylaxis reaction at 3 mg/kg, iv after 30 mins by Evans blue staining; type: functional; settings: 0.5 h
[11] = tested on: Stomach; test: Antiallergic activity in rat stomach strips assessed as inhibition of PGE2-induced anaphylaxis at 25 ug/ml; type: functional
[12] = tested on: Stomach; test: Antiallergic activity in rat stomach strips assessed as inhibition of […]-induced anaphylaxis at 25 ug/ml; type: functional
[13] = tested on: Rattus norvegicus; test: Toxicity in adrenalectomized Sprague-Dawley rat at 10 mg/kg, iv; type: organism-based; parameters: dose 10 mg/kg, route intravenous; settings: in vivo
[14] = Antiallergic activity in guinea pig lung tissue assessed as inhibition of SRS-A production at 1 ug/ml; type: functional; settings: Cavia porcellus

| Compound | EC50 [1] [µg/mL] | EC50 [2] [µg/mL] | EC50 [3] [µg/mL] | ED50 [4] [mg/kg] | EC50 [5] [µg/mL] | EC50 [6] [µg/mL] | inhibition in vivo at 10 mg/kg [7] [%] | EC50 [8] [µg/mL] | inhibition at 100 µg/mL [9] [%] | inhibition in vivo at 3 mg/kg [10] [%] | inhibition at 25 µg/mL [11] [%] | inhibition at 25 µg/mL [12] [%] | Activity [13] | inhibition at 1 µg/mL [14] [%] |
| --- | --- | --- | --- | --- | --- | --- | --- | --- | --- | --- | --- | --- | --- | --- |
| CC1(C)Oc2cc3oc(C(=O)O)cc(=O)c3cc2-c2ccccc21.NCCO | 70 | 145 | 32 | 0.5 | 17 | 150 | 81 | 92 |  |  |  |  |  |  |
| CC1(C)Oc2cc3oc(=O)cc([O-])c3cc2-c2ccccc21.[Na+] | 56 | 17 |  |  | 26 | 55 | 67 | 10.2 |  |  |  |  |  |  |
| COc1cc2c(cc1Br)-c1cc3c([O-])cc(=O)oc3cc1OC2(C)C.[Na+] | 55 | 51 | 28 |  | 14 | 39 | 33 | 4.4 |  |  |  |  |  |  |
| CC1(C)Oc2cc3oc(=O)cc([O-])c3cc2-c2ccc(Cl)cc21.[Na+] | 45 | 5.3 |  |  |  | 21 | 0 | 10.2 |  |  |  |  |  |  |
| CC1(C)Oc2cc3oc(=O)cc(O)c3cc2-c2ccc(F)cc21 |  |  |  |  |  |  | 60 |  |  |  |  |  |  |  |
| CC1(C)Oc2cc3oc(=O)cc([O-])c3cc2-c2ccc(O)cc21.[Na+] | 40 | 84 | 13 |  | 47 | > 200 | 61 | 15 |  |  |  |  |  |  |
| COc1ccc2c(c1)C(C)(C)Oc1cc3oc(=O)cc([O-])c3cc1-2.[Na+] | 68 | 9.2 |  | 9 | 23 | 13.2 | 67 | 16 |  |  |  |  |  |  |
| CCCOc1ccc2c(c1)C(C)(C)Oc1cc3oc(=O)cc([O-])c3cc1-2.[Na+] | 70 | 14 |  |  |  | 7 | 0 | 4.7 |  |  |  |  |  |  |
| CC1(C)Oc2cc3oc(=O)cc([O-])c3cc2-c2ccc(OCCO)cc21.[Na+] | 62 | 92 |  | 0.3 | 16 | > 200 | 87 | 11 |  |  |  |  |  |  |
| Cc1c2c(cc3oc(=O)cc([O-])c13)OC(C)(C)c1ccccc1-2.[Na+] |  | 17.5 |  |  |  | 14.5 | 0 | 4.8 |  |  |  |  |  |  |
| O=C([O-])c1cc(=O)c2c(OCC(O)COc3cccc4oc(C(=O)[O-])cc(=O)c34)cccc2o1.[Na+].[Na+] [CROMOLYN SODIUM] | > 200 | > 200 | > 200 | 2.9 | > 200 | > 200 | 80 | > 200 |  |  |  |  |  |  |
| CN1CCC(=C2c3ccccc3C=Cc3ccccc32)CC1 [CYPROHEPTADINE] | 25 (≈ 87 µM) | 2 (≈ 6.96 µM) | < 1 |  | 65 (≈ 226 µM) | 0.04 (≈ 0.139 µM) | 51 | 0.04 (≈ 0.139 µM) | 74 | 30 | 54 | 33 | Toxic | 62 |
